The text below walks through data of patent US8980881B2, “Crystalline forms of (R)-8-chloro-1-methyl-2,3,4,5-tetrahydro-1H-3-benzazepine hydrochloride” (priority 2004, dated 2015).

Molecules are shown by their SMILES. Entries after “also recorded” stand apart in the source; their conditions may differ. Where a name gives a salt, the structure may show the parent alone.

Series [1] can be described thus: Dynamic vapor sorption (DVS) scan, with XRPD after the cycle. The series is classed as physicochemical. The settings on record: for crystalline form after DVS cycle: XRPD after the DVS cycle; for moisture adsorbed: between about 40 and about 80% RH, calculated from DVS; for DVS: adsorbs (moisture) / DVS: adsorption transition at / DVS: deliquescent above / DVS: hygroscopicity: dynamic vapor sorption. The text has this: FIG. 4 depicts a dynamic vapor sorption (DVS) scan for crystalline Form I of the invention (VTI dynamic vapor desorption analyzer).
FIG. 8 depicts a dynamic vapor sorption (DVS) scan for crystalline Form II of the invention (VTI dynamic vapor desorption analyzer).
FIG. 12 depicts a dynamic vapor sorption (DVS) scan for crystalline Form III of the invention.
The various crystalline forms of (R)-8-chloro-1-methyl-2,3,4,5-tetrahydro-1H-3-benzazepine hydrochloride can be identified by their unique solid state signatures with respect to, for example, differential scanning calorimetry (DSC), X-ray powder diffraction (XRPD), and other solid state methods. Further characterization with respect to water or solvent content of the crystalline forms can be gauged by any of various routine methods such as thermogravimetric analysis (TGA), dynamic vapor sorption (DVS), DSC and other techniques. For DSC, it is known that the temperatures observed will depend upon the rate of temperature change as well as sample preparation technique and the particular instrument employed. Thus, the values reported herein relating to DSC thermograms can vary by plus or minus about 4° C. For XRPD, the relative intensities of the peaks can vary, depending upon the sample preparation technique, the sample mounting procedure and the particular instrument employed. Moreover, instrument variation and other factors can often affect the 2-theta values. Therefore, the peak assignments of diffraction patterns can vary by plus or minus about 0.2°.
XRPD carried out on both Forms I and II after the DVS cycle confirmed this conversion.

Series [2] in a line: Heat stability of crystalline form, XRPD analysis after heating. The series is classed as physicochemical. The method, then: A sample of Form I was heated to 160° C. in a TGA furnace for about 15 min when heated at a rate of about 10° C./min.
A sample of Form III was heated to 60° C. for at least 2 hours.
A sample of Form III was heated to 60° C. for one day.
A sample of Form III was heated to 80° C. for 30 minutes.
A sample of Form III was heated to 80° C. for 1 day.

For `C[C@H]1CNCCc2ccc(Cl)cc21` [Form I, (R)-8-chloro-1-methyl-2,3,4,5-tetrahydro-1H-3-benzazepine hydrochloride], in series [1] (hydrochloride), the “crystalline form after DVS cycle” value is “conversion to the hemihydrate (Form III); also recorded: crystalline form changes”, the “DVS: adsorption transition at” value is “about 60% RH;”, the “DVS: deliquescent above” value is “deliquescent above 90% RH” and the “DVS: hygroscopicity” value was “hygroscopic; also recorded: hygroscopic;”. In series [1], the moisture adsorbed result is reported as “about 3.8 wt %”, the “DVS: adsorbs (moisture)” value was “adsorbs about 3.8 wt %;” and the “conversion upon exposure to moisture” value was “readily convert to Form III”. The “crystal form after heating (XRPD)” value in series [2] (heated to 160° C. in a TGA furnace for about 15 min, about 10° C./min) is on record as “no change in crystal form”.
With `C[C@H]1CNCCc2ccc(Cl)cc21` [Form II, (R)-8-chloro-1-methyl-2,3,4,5-tetrahydro-1H-3-benzazepine hydrochloride], in series [1] (hydrochloride), the “crystalline form after DVS cycle” value was “conversion to the hemihydrate (Form III); also recorded: crystalline form changes”, the “DVS: adsorption transition at” value is on record as “about 40% RH;”, the “DVS: deliquescent above” value is listed as “deliquescent above 90% RH” and the “DVS: hygroscopicity” value was “hygroscopic; also recorded: hygroscopic;”. Besides, in series [1], the moisture adsorbed entry is recorded as “about 3.8 wt %”, the “DVS: adsorbs (moisture)” value was “adsorbs about 3.8 wt %;” and the “conversion upon exposure to moisture” value is “readily convert to Form III”.
On to `C[C@H]1CNCCc2ccc(Cl)cc21` [Form III, (R)-8-chloro-1-methyl-2,3,4,5-tetrahydro-1H-3-benzazepine hydrochloride Hemihydrate], for which, in series [1] (hydrochloride Hemihydrate), the “crystalline form after DVS cycle” value was “no change in crystalline form”, the “DVS: deliquescent above” value is recorded as “deliquescent above 95% RH;” and the “DVS: hygroscopicity” value is on record as “substantially non-hygroscopic”. Besides, in series [1] (at 90% RH), the “DVS: adsorption at 90% RH” value is listed as “adsorption of less than 0.5%” and the water adsorbed result is recorded as “less than 0.5 wt %”. For the same compound, the “crystal form after heating (XRPD)” value in series [2] (heated to 60° C. for at least 2 hours) was “substantially no change in crystal form”. The “crystal form after heating (XRPD)” value in series [2] (heated to 60° C. for one day) was “partial conversion to Form I”. The “crystal form after heating (XRPD)” value in series [2] (heated to 80° C. for 30 minutes) was “partial conversion to Form I”. For the same compound, the “crystal form after heating (XRPD)” value in series [2] (heated to 80° C. for 1 day) is “partial conversion to Form I”.
